The target of the assay is T1, NLRP3 (Homo sapiens, UniProt Q96P20).
T1 construct: host or cells: PMA-differentiated THP-1 cells
In words: Measurement of IL-1β production in PMA-differentiated THP-1 cells (NLRP3 hIL1B EC50). The class given is cell-based. The protocol:
Measurement of IL-1β Production in PMA-Differentiated THP-1 Cells
THP-1 cells were purchased from the American Type Culture Collection and sub-cultured according to instructions from the supplier. Prior to experiments, cells were cultured in RPMI 1640 containing 10% heat inactivated FBS, penicillin (100 units/ml) and streptomycin (100 μg/ml), and maintained in log phase prior to experimental setup. Prior to the experiment THP-1 were treated with PMA (Phorbol 12-myristate 13-acetate) (10 μg/ml) for 24 hours. The day of the experiment the media was removed and attaching cells were treated with trypsin for 2 minutes, cells were then collected, washed with PBS (phosphate buffer saline), spin down, resuspended in 2% heat inactivated FBS with RPMI at a concentration of 1×10^6 cells/ml, and 100 μl was plated in a 96 well plate. Compounds were dissolved in dimethyl sulfoxide (DMSO) and added to the culture medium to achieve desired concentration (e.g. 100, 30, 10, 3, 1, 0.3 or 0.1 μM). Cells were incubated with compounds for 4 hours. Cell free supernatant was collected and the production of IL-1β was evaluated by ELISA. A vehicle only control was run concurrently with each experiment. Final DMSO concentration was 1%.
Measurement of IL-1β Production in PMA-Differentiated THP-1 Cells (Alternative Procedure)
THP-1 cells were purchased from the American Type Culture Collection and sub-cultured according to instructions from the supplier. Prior to experiments, cells were cultured in RPMI 1640 containing 10% heat inactivated FBS, penicillin (100 units/ml), streptomycin (100 μg/ml), HEPES (10 mM) and sodium pyruvate (1 mM) and maintained in log phase prior to experimental setup. Prior to the experiment, THP-1 cells were treated with PMA (Phorbol 12-myristate 13-acetate) (20 μg/ml) overnight. The day of the experiment, the media was removed and attached cells were treated with trypsin for 2 minutes, cells were then collected, washed with PBS (phosphate buffer saline), pelleted by centrifugation and resuspended in 2% heat inactivated FBS with RPMI at a concentration of 50,000 cells/well in a 384 well plate. Cell free supernatant was collected and the production of IL-1β was evaluated by ELISA. Compounds were dissolved in dimethyl sulfoxide (DMSO) and added to the culture medium to achieve desired concentration (e.g. 100, 30, 10, 3, 1, 0.3 or 0.1 μM). Cells were incubated with compounds for 2 hours. A vehicle only control was run concurrently with each experiment. Final DMSO concentration was 1%.
Measurement of IL-1β Production—hTRF Protocol (Second Alternative Procedure)
Serial dilutions of compounds in DMSO were added to low volume 384 well plates at 100 nl/well using an ECHO 550 acoustic dispenser (Labcyte) to achieve final starting concentration of 10 μM in assay.
THP-1 cells in RPMI (Gibco, 11875) media with 10% FBS at a density of 1×10^6 cell/ml in a T175 flask were treated with a final concentration of phorbol 12-myristate 13-acetate (PMA) (Sigma, P1585) of 50 ng/ml overnight at 37° C. at 5% CO2 for differentiation. Cells were harvested the next day after rinsing well wth dPBS using 0.5% trypsin. A cell solution was prepared of 1×10^6 cells/ml for 50,000 cells in 50 μl/well in RPMI media with 2% FBS. Cells were plated using a multichannel pipette onto the compound dilutions in Greiner, 384 well, black clear bottom tissue culture treated plates (781090). The plates were incubated in 37° C. incubator at 5% CO2 for 2 hours.
After the 2 hour incubation, the cell plates were spun in the centrifuge for 5 minutes at 1200 rpm. Using the Felix (CyBio), 8 μl of the supernatant was transferred to 384 well, low volume, white proxy plates. (Perkin Elmer, 6008230). A human IL1beta hTRF kit was used to analyze the supernatant (CISBIO, 62HIL1BPEG). The kit instructions were followed for preparing the IL1Beta standard curve and then the antibodies from the kit were diluted 1:40 rather than 1:20 as kit instructed. […]

T1 sequence (Q96P20 whole entry): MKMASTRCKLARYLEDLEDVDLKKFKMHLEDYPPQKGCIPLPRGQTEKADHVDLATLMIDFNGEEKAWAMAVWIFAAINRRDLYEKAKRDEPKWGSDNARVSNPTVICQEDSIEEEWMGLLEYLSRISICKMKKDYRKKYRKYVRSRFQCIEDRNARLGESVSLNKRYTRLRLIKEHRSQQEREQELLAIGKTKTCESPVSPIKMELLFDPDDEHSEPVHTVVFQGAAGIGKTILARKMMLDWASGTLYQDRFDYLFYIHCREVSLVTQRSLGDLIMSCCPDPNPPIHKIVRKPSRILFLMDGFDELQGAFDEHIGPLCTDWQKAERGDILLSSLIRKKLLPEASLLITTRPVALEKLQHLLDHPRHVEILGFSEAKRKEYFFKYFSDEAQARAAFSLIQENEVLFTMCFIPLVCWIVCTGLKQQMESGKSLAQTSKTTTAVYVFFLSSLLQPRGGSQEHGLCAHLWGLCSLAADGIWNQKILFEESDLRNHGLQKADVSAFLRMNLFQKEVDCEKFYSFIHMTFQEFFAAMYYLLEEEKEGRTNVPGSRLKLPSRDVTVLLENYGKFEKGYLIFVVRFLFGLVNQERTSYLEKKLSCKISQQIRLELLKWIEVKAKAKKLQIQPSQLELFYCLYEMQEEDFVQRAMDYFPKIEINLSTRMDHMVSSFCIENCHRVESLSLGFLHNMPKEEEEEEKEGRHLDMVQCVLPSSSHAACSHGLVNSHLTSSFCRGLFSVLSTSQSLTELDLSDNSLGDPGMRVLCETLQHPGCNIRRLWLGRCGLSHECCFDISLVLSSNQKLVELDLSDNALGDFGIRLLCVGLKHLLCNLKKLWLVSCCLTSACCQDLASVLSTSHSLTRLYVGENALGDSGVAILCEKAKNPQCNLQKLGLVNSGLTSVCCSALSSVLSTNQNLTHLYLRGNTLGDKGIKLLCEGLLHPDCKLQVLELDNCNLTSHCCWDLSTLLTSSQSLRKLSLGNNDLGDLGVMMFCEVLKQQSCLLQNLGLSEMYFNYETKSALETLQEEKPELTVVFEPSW

As a reminder, the EC50 is the concentration that produces a half-maximal response. Lower therefore signals greater potency. For `Nc1nc(NC2CC3(CC(O)C3)C2)c2ccc(-c3ccn[nH]3)cc2n1` (stereo not drawn) [Example 3, 6-((2-amino-7-(1H-pyrazol-5-yl)quinazolin-4-yl)amino)spiro[3.3]heptan-2-ol], the EC50 worked out at 1000 nM.
`Nc1nc(N[C@H]2[C@@H]3COC[C@@H]32)c2ccc(-c3ccn[nH]3)cc2n1` [Example 4] returned an EC50 of 310 nM.
`Nc1nc(NC2C3CCC(C3)C2CO)c2ccc(-c3ccn[nH]3)cc2n1` (stereo not drawn) [Example 5] came in with an EC50 of 810 nM.
For `Nc1nc(N[C@@H]2[C@@H]3COC[C@@H]32)c2ccc(-c3ccn[nH]3)cc2n1` [Example 6] the value was 310 nM.
The result for `Nc1nc(NC23CC(CO)(C2)C3)c2ccc(-c3ccn[nH]3)cc2n1` [Example 7] reads 200 nM; that for `Nc1nc(NC23CC4CC(CC(O)(C4)C2)C3)c2ccc(-c3cc[nH]n3)cc2n1` [Example 11, (1s,3r,5R,7S)-3-((2-Amino-7-(1H-pyrazol-3-yl)quinazolin-4-yl)amino)adamantan-1-ol], 2110 nM.
In the case of `Nc1nc(N2C3CCC2COC3)c2ccc(-c3cc[nH]n3)cc2n1` [Example 12], a half-maximal effect (EC50) was put at 640 nM. This EC50 is about 3.3-fold lower than that of the compound before.
The result for `Nc1nc(NC23CC(C2)C3)c2ccc(-c3cc[nH]n3)cc2n1` [Example 13] reads 200 nM; that for `Nc1cc(N[C@@H]2C[C@H]3C[C@@H](O)C[C@H]3C2)c2ccc(-c3ccn[nH]3)cc2n1` [Example 14, (2r,3aR,5r,6aS)-5-((2-amino-7-(1H-pyrazol-5-yl)quinolin-4-yl)amino)octahydropentalen-2-ol], 640 nM.
For `Nc1cc(NC23CC(C2)C3)c2ccc(-c3ccn[nH]3)cc2n1` [Example 19] the value was 320 nM; for `Nc1cc(N[C@H]2[C@@H]3COC[C@@H]32)c2ccc(-c3ccn[nH]3)cc2n1` [Example 20], 110 nM; for `Nc1cc(NC2CC3(CC(O)C3)C2)c2ccc(-c3ccn[nH]3)cc2n1` (stereo not drawn) [Example 21], 880 nM.
The result for `Nc1cc(N2C3CCC2COC3)c2ccc(-c3ccn[nH]3)cc2n1` [Example 22] reads 2000 nM.
With `Nc1cc(N2CC3CCC(C2)O3)c2ccc(-c3ccn[nH]3)cc2n1` [Example 23], the response was half-maximal at 740 nM (EC50). This EC50 is about 2.7-fold lower than that of the compound before.
With `Nc1cc(N2C3CCC2COC3)c2ncc(-c3cc[nH]n3)cc2n1` [Example 24, 4-(3-oxa-8-azabicyclo[3.2.1]octan-8-yl)-7-(1H-pyrazol-3-yl)-1,5-naphthyridin-2-amine], the concentration for a half-maximal effect (EC50) was determined as 890 nM.
`Nc1cc(NC2COCCC23OCCO3)c2ccc(-c3cc[nH]n3)cc2n1` (stereo not drawn) [Example 33, 7-(1H-pyrazol-3-yl)-N4-(1,4,8-trioxaspiro[4.5]decan-6-yl)quinoline-2,4-diamine] came in with an EC50 of 17400 nM. Against the preceding compound, the EC50 is about 20-fold higher.
`Nc1nc(NCC23CC(CO)(C2)C3)c2ccc(-c3ccn[nH]3)cc2n1` [Example 34, (3-(((2-amino-7-(1H-pyrazol-5-yl)quinazolin-4-yl)amino)methyl)bicyclo[1.1.1]pentan-1-yl)methanol] displayed an EC50 of 3960 nM. This EC50 lies about 4.4-fold lower than the previous one.
For `Nc1nc(NC2CC23CC3)c2ccc(-c3cc[nH]n3)cc2n1` (stereo not drawn) [Example 35] the value was 190 nM; for `Nc1nc(NC2CC3(CC3)C2)c2ccc(-c3cc[nH]n3)cc2n1` [Example 37], 300 nM; for `CCN1CCC2(CCN(c3nc(N)nc4cc(-c5cc[nH]n5)ccc34)C2)C1` (stereo not drawn) [Example 38], 2580 nM.
The result for `Nc1nc(NCC2C[C@H]3CC[C@@H]2CC3)c2ccc(-c3cc[nH]n3)cc2n1` (stereo partly drawn) [Example 39] reads 860 nM; that for `Nc1cc(OCC23CCC(CC2)OC3)c2ccc(-c3cc[nH]n3)cc2n1` [Example 47, 4-((2-oxabicyclo[2.2.2]octan-4-yl)methoxy)-7-(1H-pyrazol-3-yl)quinolin-2-amine], 320 nM.
Take `Nc1cc(NCC23CCC(CC2)OC3)c2ccc(-c3cc[nH]n3)cc2n1` [Example 48, N4-((2-oxabicyclo[2.2.2]octan-4-yl)methyl)-7-(1H-pyrazol-3-yl)quinoline-2,4-diamine]: it took 570 nM to reach a half-maximal effect (EC50).
In the case of `Nc1cc(NCC23CCC(CC2)OC3)c2ccc(-c3ccsc3)cc2n1` [Example 49, N4-((2-oxabicyclo[2.2.2]octan-4-yl)methyl)-7-(thiophen-3-yl)quinoline-2,4-diamine], the EC50 came out at 540 nM.
As to `COC(=O)C12CCC(CNc3cc(N)nc4cc(-c5cc[nH]n5)ccc34)(CC1)CC2` [Example 50, methyl 4-(((2-amino-7-(1H-pyrazol-3-yl)quinolin-4-yl)amino)methyl)bicyclo[2.2.2]octane-1-carboxylate], a half-maximal effect (EC50) was put at 1730 nM.
`Nc1cc(NCC23CCC(CO)(CC2)OC3)c2ccc(-c3ccsc3)cc2n1` [Example 51, (4-(((2-amino-7-(thiophen-3-yl)quinolin-4-yl)amino)methyl)-2-oxabicyclo[2.2.2]octan-1-yl)methanol]: the 50% effective concentration (EC50) stood at 1860 nM.
`Nc1cc(NCC23CC(CO)(C2)C3)c2ccc(-c3ccn[nH]3)cc2n1` [Example 52, (3-(((2-amino-7-(1H-pyrazol-5-yl)quinolin-4-yl)amino)methyl)bicyclo[1.1.1]pentan-1-yl)methanol] gave an EC50 of 980 nM. Compared with the last compound, the EC50 is about 1.9-fold lower.
